# Like-named read-outs stand apart in the source and are kept apart here.
# Legend:
# Viscosity when dissolved = format: physicochemical
# [1] = format: physicochemical; conditions: for Concentration measured by HPLC after treatment: pH 7 buffer, test temperature e.g. 20° C.
# Procedure: A stock pH 7 buffer solution was prepared by adding aqueous sodium hydroxide solution (0.1 M, 145 mL) to aqueous potassium dihydrogen phosphate solution (0.1 M, 250 mL), and then adding sufficient distilled water to adjust the final volume to 500 mL. At least 1 time and up to about 5 times the amount of metsulfuron-methyl needed for saturation was added to a mixing vessel containing stock buffer solution at the test temperature (e.g., 20° C.). The mixture was magnetically stirred in the dark while being maintained at the test temperature. Samples were periodically removed for analysis. The samples were centrifuged using a high speed, temperature-controlled centrifuge at the test temperature for about 20 minutes at >12000 G to remove suspended particles. An aliquot of each supernatant was taken for analysis. The concentration of metsulfuron-methyl in the supernatant was determined by a high pressure liquid chromatography (HPLC) with a reversed phase chromatography column and UV detection. The method should include development of best-fit calibration curves based on at least three standards using linear regression analysis Samples were successively withdrawn from the mixing vessel and analyzed until three successive samples show little or no variation in concentration. The test is preferably replicated to ensure accuracy.
# [2] = Cleanout test (residue in polyethylene bottles extracted with acetonitrile); format: physicochemical; conditions: dispersed in tap water, stood overnight, lower = more effective cleanout
# Procedure: The test was conducted by dispersing in water a sample to produce a concentration that is normally used when applying the herbicide: 25% metsulfuron-methyl. The sample was added to tap water (300 mL) in a 400 mL beaker and magnetically stirred for 2 minutes. The mixture was then stirred for 2 minutes, whereupon the resulting dispersion was dispensed in three 100 mL aliquots to 4-oz (118 mL) polyethylene bottles. The bottles were capped, inverted twice and allowed to stand overnight.
# After standing overnight, each individual bottle was inverted twice and the liquid contents were then poured out. Tap water (10 mL) was added and the bottle was inverted until all sediment was re-suspended, whereupon the contents were poured out. Tap water (100 mL) was added and the bottle was inverted twice and then allowed to stand undisturbed for 10 minutes. The bottle was inverted twice more and the contents were poured out. Acetonitrile (10 mL) was added to the bottle to extract any remaining material. The acetonitrile solution was analyzed by reversed-phase liquid chromatography with UV detection. The cleanout rating (the concentration of metsulfuron-methyl herbicide in the acetonitrile solution) is reported in % in Table 6 below.
# weeds = experiment: Activity in controlling weeds; conditions: in vivo
# [3] = OD formulation, original concentration 40%
# [4] = SG formulation, original concentration 25%
# [5] = WG formulation, original concentration 25%
compound,measurement,setting,value
"COC(=O)c1ccccc1S(=O)(=O)NC(=O)Nc1nc(C)nc(OC)n1 [Amorphous metsulfuron-methyl, methyl 2-[[[[(4-methoxy-6-methyl-1,3,5-triazin-2-yl)amino]carbonyl]amino]sulfonyl]benzoate, reference compound]",Viscosity (in words),Viscosity when dissolved; listed as metsulfuron-methyl in amorphous state,highly viscous
same,Concentration measured by HPLC after treatment,[1]; [3],14%
same,Concentration measured by HPLC after treatment,[1]; [4],15%
same,Concentration measured by HPLC after treatment,[1]; [5],12%
same,Cleanout rating (concentration of metsulfuron-methyl in the acetonitrile solution),[2]; OD formulation,26%
same,Cleanout rating (concentration of metsulfuron-methyl in the acetonitrile solution),[2]; SG formulation,10%
same,Cleanout rating (concentration of metsulfuron-methyl in the acetonitrile solution),[2]; WG formulation,13%
"COC(=O)c1ccccc1S(=O)(=O)NC(=O)Nc1nc(C)nc(OC)n1 [Metsulfuron-methyl, crystalline modification I] [methyl 2-(4-methoxy-6-methyl-1,3,5-triazin-2-ylcarbamoylsulfamoyl)benzoate]",Activity in controlling weeds,weeds,active in controlling weeds
same,Viscosity (in words),Viscosity when dissolved; listed as crystalline modification I of metsulfuron-methyl,significant decrease
same,Solubility (in words),[1],significant increase
same,Concentration measured by HPLC after treatment,[1]; [3],35%
same,Concentration measured by HPLC after treatment,[1]; [4],24.9%
same,Concentration measured by HPLC after treatment,[1]; [5],23%
same,Cleanout rating (concentration of metsulfuron-methyl in the acetonitrile solution),[2]; OD formulation,5%
same,Cleanout rating (concentration of metsulfuron-methyl in the acetonitrile solution),[2]; SG formulation,0.1%
same,Cleanout rating (concentration of metsulfuron-methyl in the acetonitrile solution),[2]; WG formulation,2%
